Experiments:
[1] = target: HIV-1 RT wild-type enzyme (Human immunodeficiency virus type 1 group M subtype B (isolate HXB2) (HIV-1), UniProt P04585); assay: HIV-1 reverse transcriptase inhibitory activity (RT polymerase assay); assay type: biochemical; conditions: HIV-1 RT wild-type enzyme 83 pM; RNA-dependent DNA polymerase activity; read-out: IC50
Outline: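 Biotinylated DNA primer annealed to HCV-derived RNA template (16.6 nM final hybrid), with 2 μM dATP/dGTP/dCTP and 66.6 nM Ru-dUTP, after 30 min compound–enzyme preincubation at room temperature; polymerization 90 min at 37 °C, EDTA quench. Product captured on avidin plates, electrochemiluminescence read; IC50 by four-parameter logistic fit versus DMSO and 1 μM efavirenz controls.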

[2] = Determination of PK parameters in dog after intravenous bolus; assay type: in vivo, Male beagle dogs; conditions: male beagle dog, plasma, 50% DMSO in PEG400, read-out: Dog t1/2 (terminal half-life) (converted)
Experimental: Determination of PK Parameters Male beagle dogs (weight 9-13 kg) were fasted overnight and housed individually. Water was provided ad lib throughout the study. Food was allowed approximately 4 hr post dose. […] The formulations were given intravenous as a bolus injection into the cephalic vein. The vein used for the dosing will not be used for the blood sample collection for the first 4 hr post-dose). […] EDTA was used as anticoagulant and approximately 0.5 mL aliquots of blood samples were collected at each time point. […] Test compound concentration in dog plasma was determined using a LC/MS/MS method. Typically the LC/MS/MS system consisted of an ACQUITY UPLC system with autosampler system refrigerated at 4° C. during analysis, and an API 4000 mass spectrometer. […] The mobile phase consisting of a solvent A (0.1% formic acid in water/acetonitrile (95/5)) and solvent B (0.1% formic acid in acetonitrile/water (95/5)) was delivered at a flow rate of 600 μL/min. […] Mass spectrometric detection of the analytes is accomplished using either an ESI or APCI interface operated in the positive or negative ionization mode. Analyte response is measured by multiple reaction monitoring (MRM) of transitions unique to each compound […]

## N#Cc1cc(Cl)cc(Oc2c(C(F)(F)F)ncn(Cc3cc(-c4ccc(F)cc4)c(=O)[nH]n3)c2=O)c1 [Example 77, 3-chloro-5-((1-((5-(4-fluorophenyl)-6-oxo-1,6-dihydropyridazin-3-yl)methyl)-6-oxo-4-(trifluoromethyl)-1,6-dihydropyrimidin-5-yl)oxy)benzonitrile]
[1]
  IC50: 4 nM
[2]
  half-life: 79 h

## CC(F)(F)c1cc(Cn2cnc(C(F)(F)F)c(Oc3cc(Cl)cc(C#N)c3)c2=O)c(=O)[nH]n1 [Example 129, 3-chloro-5-((1-((6-(1,1-difluoroethyl)-3-oxo-2,3-dihydropyridazin-4-yl)methyl)-6-oxo-4-(trifluoromethyl)-1,6-dihydropyrimidin-5-yl)oxy)benzonitrile]
[1]
  IC50: 6 nM
[2]
  half-life: 126 h

## N#Cc1cc(Cl)cc(Oc2c(C(F)(F)F)ncn(Cc3cc(-c4ccc(C#N)c(F)c4)c(=O)[nH]n3)c2=O)c1 [Example 68, 4-(6-((5-(3-chloro-5-cyanophenoxy)-6-oxo-4-(trifluoromethyl)pyrimidin-1(6H)-yl)methyl)-3-oxo-2,3-dihydropyridazin-4-yl)-2-fluorobenzonitrile]
[1]
  IC50: 7 nM
[2]
  half-life: 25 h

## N#Cc1cc(Cl)cc(Oc2c(C(F)(F)F)ncn(Cc3ccc(=O)[nH]n3)c2=O)c1 [Example 7, 3-chloro-5-((6-oxo-1-((6-oxo-1,6-dihydropyridazin-3-yl)methyl)-4-(trifluoromethyl)-1,6-dihydropyrimidin-5-yl)oxy)benzonitrile]
[1]
  IC50: 8 nM
[2]
  half-life: 28 h

## N#Cc1cc(Cl)cc(Oc2c(C(F)(F)F)ncn(Cc3cc(C(F)F)n[nH]c3=O)c2=O)c1 [Example 128, 3-chloro-5-((1-((6-(difluoromethyl)-3-oxo-2,3-dihydropyridazin-4-yl)methyl)-6-oxo-4-(trifluoromethyl)-1,6-dihydropyrimidin-5-yl)oxy)benzonitrile]
[1]
  IC50: 4 nM
[2]
  half-life: 81 h

## CC(F)(F)c1cc(Cn2cnc(C(F)(F)F)c(Oc3cc(Cl)cc(C#N)c3)c2=O)n[nH]c1=O [Example 104, 3-chloro-5-((1-((5-(1,1-difluoroethyl)-6-oxo-1,6-dihydropyridazin-3-yl)methyl)-6-oxo-4-(trifluoromethyl)-1,6-dihydropyrimidin-5-yl)oxy)benzonitrile]
[1]
  IC50: 15 nM
[2]
  half-life: 24 h

## N#Cc1cc(Cl)cc(Oc2c(C(F)(F)F)ncn(Cc3cc(-c4ccccc4)n[nH]c3=O)c2=O)c1 [Example 110, 3-chloro-5-((6-oxo-1-((3-oxo-6-phenyl-2,3-dihydropyridazin-4-yl)methyl)-4-(trifluoromethyl)-1,6-dihydropyrimidin-5-yl)oxy)benzonitrile]
[1]
  IC50: 3 nM
[2]
  half-life: 20 h

## CC(C)(C)c1ncc(Cn2cnc(C(F)(F)F)c(Oc3cc(Cl)cc(C#N)c3)c2=O)c(=O)[nH]1 [Example 130, 3-((1-((2-(tert-butyl)-6-oxo-1,6-dihydropyrimidin-5-yl)methyl)-6-oxo-4-(trifluoromethyl)-1,6-dihydropyrimidin-5-yl)oxy)-5-chlorobenzonitrile]
[1]
  IC50: 12 nM
[2]
  half-life: 24 h

## N#Cc1cc(Cl)cc(Oc2c(C(F)(F)F)ncn(Cc3cc(C(F)(F)F)c(=O)[nH]n3)c2=O)c1 [Example 6, 3-chloro-5-((6-oxo-1-((6-oxo-5-(trifluoromethyl)-1,6-dihydropyridazin-3-yl)methyl)-4-(trifluoromethyl)-1,6-dihydropyrimidin-5-yl)oxy)benzonitrile]
[1]
  IC50: 8 nM
[2]
  half-life: 72 h

From patent US9718819B2 (Merck Sharp & Dohme Corp., priority 2012, dated 2017)
